Assay results taken from patent US7563813B2, “Iminothiazolidinone derivatives as SFRP-1 antagonists” (Wyeth, priority 2005, dated 2009).

Biological target: T1, hSFRP-1 (Homo sapiens, UniProt Q8N474)
T1 construct: expressed in transfected cells; host or cells: U2OS osteosarcoma cells (ATCC, HTB 96), transient co-transfection with Wnt 3, Wnt3A or Wnt 1, 16x TCF-tk-Luciferase reporter and CMV-beta-gal
T1 sequence (Q8N474 32-314): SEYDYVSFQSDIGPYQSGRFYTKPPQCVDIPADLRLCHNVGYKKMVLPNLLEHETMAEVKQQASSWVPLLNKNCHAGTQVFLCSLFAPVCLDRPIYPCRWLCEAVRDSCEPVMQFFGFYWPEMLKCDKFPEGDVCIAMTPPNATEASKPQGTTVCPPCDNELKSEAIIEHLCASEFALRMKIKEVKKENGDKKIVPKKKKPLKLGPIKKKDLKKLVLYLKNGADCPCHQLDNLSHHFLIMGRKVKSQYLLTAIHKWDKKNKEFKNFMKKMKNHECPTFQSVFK
Assay: Cell-Based Assay for In Vitro Measurement of SFRP-1/SARP2 Antagonist Activity (U2OS cells, 16x TCF-tk-Luciferase reporter, Wnt + hSFRP-1 co-transfection)
Details: initial single dose screening at 10 μM; for fold induction at 10 µM: luciferase reporter activity, fold induction over SFRP-1 control; for Ratio: ratio not defined
Procedure: Cell-Based Assay for In Vitro Measurement of SFRP-1/SARP2 Antagonist Activity
The following cell-based assay can be used to identify inhibitors of SFRP-1.
The osteosarcoma cell line, U2OS (ATCC, HTB 96), was passaged twice a week with growth medium (McCoy's SA medium containing 10% (v/v) fetal calf serum, 2 mM GlutaMAX-1, and 1% (v/v) Penicillin-Streptomycin). The cells were maintained in vented flasks at 37° C. inside a 5% CO2/95% humidified air incubator. One day prior to transfection, the cells were plated with growth medium at 25,000 cells/well into 96-well plates and incubated at 37° C. overnight.
The growth medium was removed, and the cells were washed once with OPTIMEM I (Gibco-BRL) medium (100 μl/well) to remove the serum and antibiotics. The wash medium was removed, and the cells were re-fed with OPTI-MEM I medium (100 μl/well). For each well of cells to be transfected, the following DNA's were diluted together in 25 μl OPTI-MEM I medium: 0.1 μg 16× TCF-tk-Luciferase reporter, 0.02 μg Wnt 3, Wnt3A, Wnt 1 or empty vector (Upstate Biotechnology), 0.075 μg hSFRP-1 or empty vector (pcDNA3.1, Invitrogen), and 0.025 μg CMV-®gal (Clonetech). For each well of cells to be transfected, 1 μl of Lipofectamine 2000 reagent (Invitrogen) was diluted in 25 μl OPTI-MEM I medium and incubated at room temperature for 5 minutes. The diluted DNA's were then combined with the diluted Lipofectamine 2000 (LF2000), and the mixture was incubated at room temperature for 20 minutes. Fifty μl of the DNA-LF 2000 mixture was added to each well, and the plate(s) were incubated at 37° C. in a 5% CO2/95% humidified air incubator for 4 hours. The cells were washed once with 150 μl/well of experimental medium (phenol red-free RPMI Medium 1640 containing 2% fetal bovine serum, 2 mM GlutaMAX-1, and 1% Penicillin-Streptomycin). Finally, the cells were treated overnight at 37° C. with 200 μl/well of experimental medium containing either vehicle (typically DMSO) or diluted compound in replicates of 8 wells/compound.
Initial single dose screening of test compounds was done at 10 μM.
Dose-response experiments were initially performed with the compounds in log increases from 1-10,000 nM. From these dose-response curves, EC50 values were generated.
After treatment, the cells were washed twice with 150 μl/well of PBS without calcium or magnesium and were lysed with 50 μl/well of 1× cell culture lysis reagent (Promega Corporation) on a shaker at room temperature for 30 minutes. Thirty μl aliquots of the cell lysates were transferred to 96-well luminometer plates, and luciferase activity was measured in a MicroLumat PLUS luminometer (EG&G Berthold), or a Victor (PerkinElmer Life Sciences) using […] of luciferase substrate (Promega Corporation). Following the injection of substrate, luciferase activity was measured for 10 seconds after a 1.6 second delay. Similarly, 10 μl aliquots of the cell lysates were transferred to separate 96-well luminometer plates, and 50 μl of Galacton chemiluminescent substrate (Tropix) was added to each well. The plates were covered and incubated on a rotary shaker at room temperature for one hour. ®gal activity was measured in a MicroLumat PLUS luminometer or Victor using 100 μl/well of Light Emission Accelerator (Tropix). Following the injection of the accelerator, ®gal activity was measured for 10 seconds after a 1.6 second delay. The luciferase and ®gal activity data were transferred from the luminometer to a PC and analyzed using the SAS/Excel program. After the luciferase activity was normalized to ®gal, the SAS/Excel program was used to determine the mean and standard deviation of each treatment, to analyze the data for statistical significance, and to determine EC50 values.
As an alternative to co-transfection in a 96 well plate, the U2OS cells were transfected in T225 flasks and the transfected cells were frozen. The frozen cells were thawed and plated on a 96 well plate and the assay was carried out as detailed above. […]

| SMILES | fold induction at 10 µM | Ratio |
| --- | --- | --- |
| N=C1NC(=O)C(CC(=O)Nc2cccc(Br)c2)S1 (centres unmarked) [Example 2, N-(3-bromophenyl)-2-(2-imino-4-oxo-1,3-thiazolidin-5-yl)acetamide] | 2 | 1.8 |
| N=C1NC(=O)C(CC(=O)Nc2cccc(F)c2)S1 (centres unmarked) [Example 3, N-(3-fluorophenyl)-2-(2-imino-4-oxo-1,3-thiazolidin-5-yl)acetamide] | 1.5 | 1.3 |
| N=C1NC(=O)C(CC(=O)Nc2cccc(F)c2F)S1 (centres unmarked) [Example 8, N-(2,3-difluorophenyl)-2-(2-imino-4-oxo-1,3-thiazolidin-5-yl)acetamide] | 1.1 | 1.0 |
| N=C1NC(=O)C(CC(=O)Nc2ccc(F)c(F)c2)S1 (centres unmarked) [Example 9, N-(3,4-difluorophenyl)-2-(2-imino-4-oxo-1,3-thiazolidin-5-yl)acetamide] | 1.6 | 1.5 |
| N=C1NC(=O)C(CC(=O)Nc2ccc(F)c(Cl)c2)S1 (centres unmarked) [Example 11, N-(3-chloro-4-fluorophenyl)-2-(2-imino-4-oxo-1,3-thiazolidin-5-yl)acetamide] | 1.9 | 1.7 |
| N=C1NC(=O)C(CC(=O)NCc2ccc(C(F)(F)F)cc2)S1 (centres unmarked) [Example 12, 2-(2-imino-4-oxo-1,3-thiazolidin-5-yl)-N-[4-(trifluoromethyl)benzyl]acetamide] | 1.1 | 1.0 |
| Cc1cc(NC(=O)CC2SC(=N)NC2=O)on1 (centres unmarked) [Example 13, 2-(2-imino-4-oxo-1,3-thiazolidin-5-yl)-N-(3-methylisoxazol-5-yl)acetamide] | 1 | 1.0 |
| C#Cc1cccc(NC(=O)CC2SC(=N)NC2=O)c1 (centres unmarked) [Example 14, N-(3-ethynylphenyl)-2-(2-imino-4-oxo-1,3-thiazolidin-5-yl)acetamide] | 1.8 | 1.6 |
| CCOC(=O)c1c(C)csc1NC(=O)CC1SC(=N)NC1=O (centres unmarked) [Example 16, ethyl 2-{[(2-imino-4-oxo-1,3-thiazolidin-5-yl)acetyl]amino}-4-methylthiophene-3-carboxylate] | 2 | 1.9 |
| N=C1NC(=O)C(CC(=O)Nc2ccccc2)S1 (centres unmarked) [Example 17, 2-(2-imino-4-oxo-1,3-thiazolidin-5-yl)-N-phenylacetamide] | 1.3 | 1.0 |
| N=C1NC(=O)C(CC(=O)NCc2cccc(C(F)(F)F)c2)S1 (centres unmarked) [Example 19, 2-(2-imino-4-oxo-1,3-thiazolidin-5-yl)-N-[3-(trifluoromethyl)benzyl]acetamide] | 1.1 | 0.9 |
| N=C1NC(=O)C(CC(=O)NCc2cccc(Cl)c2)S1 (centres unmarked) [Example 22, N-(3-chlorobenzyl)-2-(2-imino-4-oxo-1,3-thiazolidin-5-yl)acetamide] | 1.2 | 1.0 |
| CCOC(=O)c1cccc(NC(=O)CC2SC(=N)NC2=O)c1 (centres unmarked) [Example 25, ethyl 3-{[(2-imino-4-oxo-1,3-thiazolidin-5-yl)acetyl]amino}benzoate] | 1.7 | 1.4 |
| N=C1NC(=O)C(CC(=O)Nc2cccc(Oc3ccccc3)c2)S1 (centres unmarked) [Example 26, 2-(2-imino-4-oxo-1,3-thiazolidin-5-yl)-N-(3-phenoxyphenyl)acetamide] | 1.5 | 1.4 |
| N=C1NC(=O)C(CC(=O)Nc2cccc(C(=O)c3ccccc3)c2)S1 (centres unmarked) [Example 27, N-(3-benzoylphenyl)-2-(2-imino-4-oxo-1,3-thiazolidin-5-yl)acetamide] | 1.8 | 1.5 |

Second part, the compound after the results:

| fold induction at 10 µM | Ratio | SMILES |
| --- | --- | --- |
| 2.5 | 2.5 | CCOC(=O)c1c(NC(=O)CC2SC(N)=NC2=O)sc(C)c1C (centres unmarked) [Example 1, Ethyl 2-{[(2-amino-4-oxo-4,5-dihydro-1,3-thiazol-5-yl)acetyl]amino}-4,5-dimethylthiophene-3-carboxylate] |
| 1.3 | 1.2 | N#Cc1cccc(NC(=O)CC2SC(=N)NC2=O)c1 (centres unmarked) [Example 4, N-(3-cyanophenyl)-2-(2-imino-4-oxo-1,3-thiazolidin-5-yl)acetamide] |
| 1.3 | 1.2 | CC(=O)Nc1cccc(NC(=O)CC2SC(=N)NC2=O)c1 (centres unmarked) [Example 5, N-[3-(acetylamino)phenyl]-2-(2-imino-4-oxo-1,3-thiazolidin-5-yl)acetamide] |
| 1.7 | 1.7 | N=C1NC(=O)C(CC(=O)Nc2ccc(Cl)c(Cl)c2)S1 (centres unmarked) [Example 6, N-(3,4-dichlorophenyl)-2-(2-imino-4-oxo-1,3-thiazolidin-5-yl)acetamide] |
| 1 | 1.0 | N=C1NC(=O)C(CC(=O)Nc2ccc(Cl)cc2Cl)S1 (centres unmarked) [Example 7, N-(2,4-dichlorophenyl)-2-(2-imino-4-oxo-1,3-thiazolidin-5-yl)acetamide] |
| 2.2 | 2.2 | N=C1NC(=O)C(CC(=O)Nc2cccc(Cl)c2)S1 (centres unmarked) [Example 10, N-(3-chlorophenyl)-2-(2-imino-4-oxo-1,3-thiazolidin-5-yl)acetamide] |
| 1.5 | 1.2 | CSc1cccc(NC(=O)CC2SC(=N)NC2=O)c1 (centres unmarked) [Example 15, 2-(2-imino-4-oxo-1,3-thiazolidin-5-yl)-N-[3-(methylthio)phenyl]acetamide] |
| 1.2 | 1.1 | N=C1NC(=O)C(CC(=O)NCc2ccccc2)S1 (centres unmarked) [Example 18, N-benzyl-2-(2-imino-4-oxo-1,3-thiazolidin-5-yl)acetamide] |
| 1.2 | 1.1 | N=C1NC(=O)C(CC(=O)NCc2ccccc2C(F)(F)F)S1 (centres unmarked) [Example 20, 2-(2-imino-4-oxo-1,3-thiazolidin-5-yl)-N-[2-(trifluoromethyl)benzyl]acetamide] |
| 1.2 | 1.0 | N=C1NC(=O)C(CC(=O)NCc2ccc(Cl)cc2)S1 (centres unmarked) [Example 21, N-(4-chlorobenzyl)-2-(2-imino-4-oxo-1,3-thiazolidin-5-yl)acetamide] |
| 1.2 | 1.0 | N=C1NC(=O)C(CC(=O)NCc2ccccc2Cl)S1 (centres unmarked) [Example 23, N-(2-chlorobenzyl)-2-(2-imino-4-oxo-1,3-thiazolidin-5-yl)acetamide] |
| 1.2 | 1.0 | N=C1NC(=O)C(CC(=O)Nc2cccc(C(N)=O)c2)S1 (centres unmarked) [Example 24, 3-{[(2-imino-4-oxo-1,3-thiazolidin-5-yl)acetyl]amino}benzamide] |
| 1.2 | 1.0 | N=C1NC(=O)C(CC(=O)Nc2cccc(Cl)c2Cl)S1 (centres unmarked) [Example 28, N-(2,3-dichlorophenyl)-2-(2-imino-4-oxo-1,3-thiazolidin-5-yl)acetamide] |
